What was measured:
[1] = 4-week ocular local tolerance study in rabbits; assay type: in vivo, pigmentierte Himalayakaninchen; details: 0,01 % solution, 50 µl ten times daily at 45 min intervals into conjunctival sac of right eye for 4 weeks; histopathology at end; animals with conjunctival lesions and acanthosis/hyperkeratosis at margin of lower right eyelid
Excerpt: Die bessere Augenverträglichkeit der Verbindungen der Formel I im Vergleich zu Benzalkoniumchlorid wird z.B. auch aus den Ergebnissen der im folgenden beschriebenen 4 Wochen dauernden okularen, lokalen Verträglichkeitsstudie beim Kaninchen deutlich: Verglichen wurden jeweils 0,01 %-ige Lösungen von N-Benzyl-N-(gemischtes C₈-C₁₈-Alkyl)-N,N-bis-(2-hydroxyethyl)-ammoniumchlorid und Benzalkoniumchlorid. Als Versuchstiere dienten pigmentierte Himalayakaninchen. Diesen wurden 4 Wochen lang zehnmal täglich (in 45 Minuten-Intervallen) jeweils 50 µl der entsprechenden Lösung in den Konjunktivalsack des rechten Auges verabreicht. Zur Kontrolle wurde in das linke Auge jeweils eine Vergleichslösung, die kein Konservierungsmittel enthielt, eingetropft. Die Tiere wurden am ersten und am fünften Behandlungstag ophthalmologisch untersucht. […] Dagegen wurden bei 4 von 6 mit Benzalkoniumchloridlösung behandelten Tieren Läsionen in der Konjunktiva und eine Akanthose und Hyperkeratose am Rand des unteren rechten Augenlids beobachtet. Die Benzalkoniumchloridlösung verursachte demnach Aenderungen am konjunktivalen Epithel, welche bei der erfindungsgemässen Lösung nicht auftraten. Damit ist überzeugend nachgewiesen, dass die Verbindungen der Formel I eine im Vergleich zu Benzalkoniumchlorid überraschend verbesserte Langzeitverträglichkeit im Auge besitzen.

[2] = 5-day ocular tolerance test in animals; assay type: in vivo, Kaninchen
Excerpt: Die überraschenderweise verbesserte Augenverträglichkeit der Verbindungen der Formel I im Vergleich zu Benzalkoniumchlorid wird z.B. aus den Ergebnissen der im folgenden beschriebenen 5-Tage-Verträglichkeitsprüfung beim Tier deutlich: Verglichen wurden jeweils 0,01 %-ige Lösungen von Benzoxoniumchlorid und Benzalkoniumchlorid. Diese Lösungen wurden 5 Tage lang fünfmal (in 90 Minuten-Invervallen) in den Konjunktivalsack von Kaninchen eingetropft. Am Ende des Versuchs wurden die behandelten Augen auf Klinische Befunde, wie z.B. Rötungen der Konjunktiva, Korneatrübungen, Sekretion und Bindehautschwellungen, untersucht. Dabei ergaben sich die folgenden Resultate: Brenzoxoniumchlorid (≙ Verbindung der Formel I), 0,01 % 5 Instillationen/Tier/Tag im Abstand von jeweils 90 min keine Befunde Benzalkoniumchlorid (≙ Vergleichsverbindung), 0,01 % 5 Instillationen/Tier/Tag im Abstand von jeweils 90 min 4 Befunde

St. aureus = experiment: Preservative challenge test; assay type: cell-based; design: key: k. W.: k.W.: kein Wachstum; details: 0,1 mg/ml, pH 6, inoculum 1,4•10^6/ml
Excerpt: (§1) Die konservierende Wirkung der Verbindungen der Formel I wird z.B. aus den Ergebnissen des folgenden Konservierungsmittelbelastungstests deutlich: […]

Ps. aeruginosa = experiment: Preservative challenge test; assay type: cell-based; design: key: k. W.: k.W.: kein Wachstum; details: 0,1 mg/ml, pH 6, inoculum 1,1•10^6/ml
Excerpt: as §1

C. albicans = experiment: Preservative challenge test; assay type: cell-based; design: key to Reduktion des Wachstums: k. W.: k.W.: kein Wachstum; details: 0,1 mg/ml, pH 6, inoculum 9,9•10^5/ml
Excerpt: as §1

E. coli = experiment: Preservative challenge test; assay type: cell-based; design: key to Reduktion des Wachstums: k. W.: k.W.: kein Wachstum; details: 0,1 mg/ml, pH 6, inoculum 1,5•10^6/ml
Excerpt: as §1

Compound | okulare Läsionen [1] | Klinische Befunde ([2]; in vivo) [Befunde] | Klinische Befunde ([2]; 0,01 % solution, 5 instillations/animal/day at 90 min intervals into the conjunctival sac for 5 days, eyes examined at end of test (conjunctival redness, corneal opacity, secretion, conjunctival swelling)) | Reduktion des Wachstums (St. aureus; contact time 10 min) | Reduktion des Wachstums (St. aureus; contact time 6 h) | Reduktion des Wachstums (St. aureus; contact time 24 h) | Reduktion des Wachstums (Ps. aeruginosa; contact time 10 min) | Reduktion des Wachstums (Ps. aeruginosa; contact time 6 h) | Reduktion des Wachstums (Ps. aeruginosa; contact time 24 h) | Reduktion des Wachstums (C. albicans; contact time 6 h) | Reduktion des Wachstums (C. albicans; contact time 24 h) | killing at 100 µg/mL (C. albicans; Candida albicans, 10 min, contact time 10 min, read-out: Reduktion des Wachstums) [%] | Reduktion des Wachstums (E. coli; contact time 6 h) | Reduktion des Wachstums (E. coli; contact time 24 h) | killing at 100 µg/mL (E. coli; Escherichia coli, 10 min, contact time 10 min, read-out: Reduktion des Wachstums) [%]
N-Benzyl-N-(gemischtes C₈-C₁₈-Alkyl)-N,N-bis-(2-hydroxyethyl)-ammoniumchlorid | keine okularen Läsionen |  |  |  |  |  |  |  |  |  |  |  |  |  | 
N-Benzyl-N-(C₈-C₁₈-alkyl)-N,N-dimethylammoniumchlorid [Benzalkoniumchlorid, reference compound] | 4 von 6 | 4 |  |  |  |  |  |  |  |  |  |  |  |  | 
CCCCCCCCCCCC[N+](CCO)(CCO)Cc1ccccc1.[Cl-] [Benzoxoniumchlorid, N-Benzyl-N-(n-dodecyl)-N,N-bis-(2-hydroxyethyl)-ammoniumchlorid] |  |  | keine Befunde | k. W. | k. W. | k. W. | k. W. | k. W. | k. W. | k. W. | k. W. | 100 | k. W. | k. W. | 100

From EP0420798B1, “Antimicrobial compositions” (Ciba Vision AG, Hettlingen, priority 1989, dated 1991)
